Test results published in patent publication US8628938B2, “Polynucleotide encoding UDP-glucuronyl transferase” (Suntory Holdings Limited, priority 2007, dated 2014).

Columns and labels:
Details in all cases: for glucuronosyl transfer activity to glycosyl acceptor substrate (in words): standard reaction conditions; for relative activity to each substrate, taking the activity to scutellarein as 100%: 100 μM glycosyl acceptor substrate, 2 mM UDP-glucuronic acid, pH 7.5, 30° C., 30 minutes
PfUGT50 = assay: UDP-glucuronosyltransferase activity assay (HPLC) with recombinant PfUGT50; type: biochemical, Perilla frutescens
Procedure: (§1) Escherichia coli BL21 (DE3) was transformed with each plasmid obtained in 4-(1) above. The transformant obtained was shake cultured overnight at 37° C. in 4 ml of LB medium (10 g/l tryptone, 5 g/l yeast extract, 1 g/l NaCl) supplemented with 50 μg/ml of ampicillin. The culture broth, 4 ml, which reached the stationary phase, was inoculated into 80 ml of the medium with the same composition, followed by shake culture at 37° C. When the cell turbidity (OD600) reached approximately 0.5, 0.4 mM IPTG (isopropyl-β-thiogalactopyranoside) in a final concentration was added to the medium, followed by shake culture at 22° C. for 20 hours. All of the subsequent procedures were performed at 4° C. The transformants cultured were centrifuged (7,000×g, 15 mins.) to collect the cells, and 2 ml/g cell of Buffer S (20 mM sodium phosphate buffer (pH 7.4), 20 mM imidazole, 0.5 M NaCl, 14 mM β-mercaptoethanol) was added to the cells for suspension. Subsequently, ultrasonication was performed (15 secs.×8) followed by centrifugation (15,000×g, 10 mins.). To the supernatant obtained, 0.12% (w/v) polyethyleneimine in a final concentration was added to […], which was then allowed to stand for 30 minutes. The mixture was centrifuged (15,000×g, 10 mins.) and the supernatant was recovered as a crude enzyme solution. The crude enzyme solution was applied to His SpinTrap (GE Healthcare), which had been equilibrated with Buffer S, and centrifuged (70×g, 30 secs.). After washing with 600 μl of Buffer S, the protein bound to the column was stepwise eluted with 600 μl each of Buffer S containing 100, 200 and 500 mM imidazole. The buffer in each fraction eluted was replaced by 20 mM potassium phosphate buffer (pH 7.5) containing 14 mM β-mercaptoethanol, using Microcon YM-30 (Amicon). […] These fractions were mixed and used for analysis.
(§2) Standard reaction conditions are as follows. A reaction solution (2 mM UDP-glucuronic acid, 100 μM glycosyl acceptor substrate, 50 mM potassium phosphate buffer (pH 7.5), enzyme solution), 50 μl, was prepared and the enzyme solution was added to initiate the reaction at 30° C. for 30 minutes. The reaction was stopped by adding 50 μl of 0.5% TFA in CH3CN and provided for HPLC analysis. The conditions for HPLC are as follows: column, Develosil C30-UG-5 (4.6×150 mm); eluant A, 0.1% TFA/H2O; eluant B, 0.08% TFA/90% CH3CN; conditions A for elution (except for aurone, catechin, coumarine and phenylpropanoid), 0 min/5% B→18 min/100% eluant B'18.1 min/5% B→25 min/5% B; conditions B for elution (aurone, catechin, coumarine and phenylpropanoid), 0 min/5% B→20 min/50% eluant B→20.5 min/5% B→25 min/5% B; flow rate, 1 ml/min; detection wavelength: 280 and 350 nm.

AmUGTcg10 = assay: UDP-glucuronosyltransferase activity assay (HPLC) with recombinant AmUGTcg10; type: biochemical, Antirrhinum majus
Procedure: as §1, §2

SiUGT23 = assay: UDP-glucuronosyltransferase activity assay (HPLC) with recombinant SiUGT23; type: biochemical, Sesamum indicum
Procedure: as §2
cDNA containing full-length ORF of SiUGT23 derived from Sesamum indicum was amplified by a gene-specific primer set (SEQ ID NOs: 24 and 25). cDNA synthesized using total RNA extracted from sesame seeds was used as a template. SiUGT23 was incorporated into Escherichia coli expression vector as in UGT of Perilla frutescens, Scutellaria laeteviolacea v. yakusimensis and Antirrhinum majus in EXAMPLE 1 and recombinant SiUGT23 protein was expressed in the same way to assay the enzyme activity.

S1UGT = assay: UDP-glucuronosyltransferase activity assay (HPLC) with recombinant S1UGT; type: biochemical, Scutellaria laeteviolacea v. yakusimensis
Procedure: as §1, §2

[1] = apigenin as glycosyl acceptor substrate

Row | Compound | glucuronosyl transfer activity to glycosyl acceptor substrate (in words) (PfUGT50) | glucuronosyl transfer activity to glycosyl acceptor substrate (in words) (AmUGTcg10) | glucuronosyl transfer activity to glycosyl acceptor substrate (in words) (S1UGT) | relative activity to each substrate, taking the activity to scutellarein as 100% (SiUGT23) [%] | other results
1 | O=C(O[C@@H]1Cc2c(O)cc(O)cc2O[C@@H]1c1cc(O)c(O)c(O)c1)c1cc(O)c(O)c(O)c1 [epigallocatechin gallate] | no activity | no activity | no activity | – | glucuronosyl transfer activity to glycosyl acceptor substrate (in words) (SiUGT23): no activity
2 | Oc1ccc([C@H]2OC[C@H]3[C@@H]2CO[C@@H]3c2ccc3c(c2)OCO3)cc1O [SC1, (+)-sesamin catechol 1] | shows the activity | – | shows the activity | – | –
3 | O=C(O)/C=C/c1ccc(O)c(O)c1 [caffeic acid] | – | – | – | – | glucuronosyl transfer activity to glycosyl acceptor substrate (in words) (SiUGT23): no activity
4 | O=c1c(O)c(-c2cc(O)c(O)c(O)c2)oc2cc(O)cc(O)c12 [myricetin] | – | – | shows the activity | – | relative activity to each substrate, taking the activity to scutellarein as 100% (PfUGT50): 9%
5 | O=c1cc(-c2ccc(O)cc2)oc2cc(O)c([C@@H]3O[C@H](CO)[C@@H](O)[C@H](O)[C@H]3O)c(O)c12 [isovitexin] | no activity | no activity | no activity | 0.3 | –
6 | COc1cc(/C=C/CO)ccc1O [coniferyl alcohol] | no activity | no activity | no activity | – | –
7 | Oc1ccc([C@H]2OC[C@H]3[C@@H]2CO[C@@H]3c2ccc(O)c(O)c2)cc1O [SC2, (+)-sesamin catechol 2] | – | – | shows the activity | – | –
8 | O=c1ccc2cc(O)c(O)cc2o1 [esculetin] | no activity | no activity | – | 0.03 | relative activity to each substrate, taking the activity to scutellarein as 100% (S1UGT): 0.3%
9 | COc1cc(-c2cc(=O)c3c(O)cc(O)cc3o2)ccc1O [chrysoeriol] | – | – | – | 6 | relative activity to each substrate, taking the activity to scutellarein as 100% (PfUGT50): 18%; relative activity to each substrate, taking the activity to scutellarein as 100% (AmUGTcg10): 18%; relative activity to each substrate, taking the activity to scutellarein as 100% (S1UGT): 0.02%
10 | Oc1ccc(C2OCC3C(c4ccc(O)c(O)c4)OCC23)cc1O (single isomer, unassigned; (+)) [EC2, (+)-episesamin catechol 2] | – | – | shows the activity | – | –
11 | COc1ccc(-c2cc(=O)c3c(O)cc(O)cc3o2)cc1O [diosmetin] | – | – | – | 4 | relative activity to each substrate, taking the activity to scutellarein as 100% (PfUGT50): 62%; relative activity to each substrate, taking the activity to scutellarein as 100% (AmUGTcg10): 26%; relative activity to each substrate, taking the activity to scutellarein as 100% (S1UGT): 0.3%
12 | catechin | no activity | no activity | no activity | – | glucuronosyl transfer activity to glycosyl acceptor substrate (in words) (SiUGT23): no activity
13 | O=C(O)[C@H]1O[C@H](OP(=O)(O)OP(=O)(O)OC[C@H]2O[C@@H](n3ccc(=O)[nH]c3=O)[C@H](O)[C@@H]2O)[C@H](O)[C@@H](O)[C@@H]1O [UDP-glucuronic acid] | – | – | – | – | activity to UDP-activated glycosyl donor (PfUGT50; [1]): showed the activity; activity to UDP-activated glycosyl donor (AmUGTcg10; [1]): showed the activity; activity to UDP-activated glycosyl donor (S1UGT; [1]): showed the activity
